# Laboratory results as given in patent US8569229B2, “Compositions and methods which modulate G-protein signaling for the treatment of inflammatory disorders such as asthma and allergic conjunctivitis” (The Children's Hospital of Philadelphia, priority 2008, dated 2013).
# Entries after “also recorded” stand apart in the source; their conditions may differ. Ends that are not written are not given here.
# Key:
# human ASM cells = assay: Assay of cAMP PDE activity in ASM cell lysates; format: cell-based; conditions: for effect of pretreatment on PGE2-induced increase in PDE activity: PGE2 100 nM x 24 hr, peptides 30 μM (Example III)
# OVA-sensitized rabbits [1] = assay: IL-13 and IFN-γ in BALF samples of OVA-sensitized, OVA-challenged rabbits; format: in vivo, rabbit; conditions: pretreated OVA-sensitized+OVA challenged rabbits
# Description: (§1) In vivo studies were conducted wherein adult NZW rabbits were initially sensitized with weekly intra-peritoneal (i.p.) injections of 2.5 mg OVA and 10 mg of alum adjuvant for 4-5 weeks, and non-sensitized (control) rabbits received alum alone. Both the OVA sensitized and control animals were then challenged with either vehicle (saline) or aerosolized OVA delivered via a nebulizer. The following day, while mechanically ventilated under general anesthesia/paralysis, the rabbits' broncho-constrictor responses to intravenous (i.v.) bolus injections of cumulatively increasing doses of methacholine (MCh) were determined and induced changes in respiratory system resistance (Rrs), measured as previously described (Grunstein et al. J. Appl. Physiol: Respirat. Environ. Exercise Physiol. 57:1238-1246, 1984). Lung lavage was then performed to obtain bronchoalveolar lavage fluid (BALF) samples, and the lungs were excised for histological examination in H&E-stained paraffin-embedded 4 micron sections.
# OVA-sensitized rabbits [2] = assay: In vivo bronchoconstrictor responses to methacholine (Rrs) in OVA-sensitized, OVA-challenged rabbits; set-up: species or system rabbit; conditions: 1 mg/Kg by nebulizer 2 hr prior to OVA challenge, measured 24 hr after challenge
# Description: as §1, with “Both” for “In vivo studies were conducted wherein adult NZW rabbits were initially sensitized with weekly intra-peritoneal (i.p.) injections of 2.5 mg OVA and 10 mg of alum adjuvant for 4-5 weeks, and non-sensitized (control) rabbits received alum alone. Both”, “[…].” for “Respirat.”
# OVA-sensitized rabbits [3] = assay: Allergic conjunctivitis response to ocular OVA challenge in OVA-sensitized rabbits; format: in vivo, rabbit; conditions: 15 μl of 1 μM topically 20 minutes prior to OVA, examined at 60 minutes
# Description: Similar to previous studies investigating either allergic asthma or allergic conjunctivitis in animal models, in vivo studies were conducted wherein adult NZW rabbits were initially systemically immunized with weekly intra-peritoneal (i.p.) injections of 2.5 mg ovalbumin (OVA) and 10 mg of alum adjuvant for 4-5 weeks. Following sensitization, as previously described in other animal models of allergic conjunctivitis (Groneberg D. A. et al. Allergy 58: 1101-1113, 2003), the OVA allergen was topically introduced into the conjunctival sac of the eyes of the rabbit to examine its ocular allergic inflammatory response. […] Accordingly, for each animal, 15 μl of a sterile 1 μM concentration of the MPS:anti-Gβγ peptide (prepared in PBS) was topically applied into the conjunctival sac of one eye 20 minutes prior to subsequent instillation of OVA (500 μg in 15 μl PBS), and the carrier MPS peptide alone (i.e., control “sham” pretreatment) was applied to the other eye 20 minutes prior to subsequent instillation of OVA. The eyes were then clinically examined for an acute ocular inflammatory response to OVA challenge and photographs were taken of each eye at 60 minutes following OVA challenge. […]
# OVA-sensitized rabbits [4] = assay: Lung histopathology in OVA-sensitized, OVA-challenged rabbits; format: in vivo, rabbit; conditions: pretreated OVA-sensitized+OVA challenged rabbits
# Description: as §1, with “Both” for “In vivo studies were conducted wherein adult NZW rabbits were initially sensitized with weekly intra-peritoneal (i.p.) injections of 2.5 mg OVA and 10 mg of alum adjuvant for 4-5 weeks, and non-sensitized (control) rabbits received alum alone. Both”, “[…].” for “Respirat.”
substance,measurement,setting,value
MPS-Phosducin-like protein C terminus (AAVALLPAVLLALLAVTDQLGEDFFAVDLEAFLQEFGLLPEKE; also: MPS attached) [anti-Gβγ peptide],effect of pretreatment on PGE2-induced increase in PDE activity,human ASM cells; listed as Gβγ inhibitory peptide,completely ablated
same,effect of pretreatment on PGE2-induced increase in PDE activity,human ASM cells; listed as anti-Gβγ cell-permeable inhibitory peptide,completely abrogated
same,effect of pretreatment on salmeterol- and isoproterenol-induced increase in PDE activity,human ASM cells; salmeterol or isoproterenol 10 μM x 24 hr,completely abrogated; also recorded: ablated
same,effect on OVA challenge-induced decrease in BALF IFN-γ,OVA-sensitized rabbits [1],prevents
same,effect on OVA challenge-induced increase in BALF IL-13,OVA-sensitized rabbits [1],prevents
same,effect on airway constrictor hyper-responsiveness (Rrs responses to MCh),OVA-sensitized rabbits [2],largely abrogated
same,effect on airway constrictor hyper-responsiveness (Rrs responses to MCh),OVA-sensitized rabbits [2]; listed as MPS-conjugated anti-G βγ peptide,prevented to a similar degree
same,clinical signs of allergic conjunctivitis after ocular OVA challenge,OVA-sensitized rabbits [3],virtually no clinical signs of conjunctival inflammation
same,clinical signs of allergic conjunctivitis after ocular OVA challenge,OVA-sensitized rabbits [3]; listed as MPS-conjugated anti-Gβγ peptide,signs of allergic conjunctivitis are absent
same,effect on pulmonary inflammatory response (peribronchial and parenchymal inflammatory cell infiltration),OVA-sensitized rabbits [4],markedly suppressed to a similar extent; also recorded: markedly suppresses
